Test results: patent publication US11787835B2, “C19 scaffolds and steroids and methods of use and manufacture thereof” (Trustees of Dartmouth College, priority 2018, dated 2023)

Key:
U251 and U87 cells [1] = test: Growth inhibition and viable cell counts of glioblastoma cell lines; format: cell-based, human; conditions: for inhibition of glioma cell growth (IC50), fold lower concentration compared to TMZ: after 24 hours, FIG. 3A
Experimental: FIG. 3A-3B are line graphs depicting (A) dose dependent growth inhibition of U251 and U87 cells treated with Compound 100, Compound 101, TMZ, and vehicle control DMSO (n=4) and (B) viable cell counts of U251 and U87 cells treated with Compound 100, Compound 101, TMZ, and vehicle control DMSO determined every 24 hours for 96 hours (n=4)
(§1) To determine the biological effect of Compound 100 and Compound 101, human glioblastoma-derived cell lines U251 and U87 were treated with varying concentrations of Compound 100, Compound 101, temazolomide (TMZ; a standard of care chemotherapeutic agent), or vehicle-toxicity control, dimethylsulfoxide (DMSO) used at final volumes that were identical to those used to attain all concentrations tested of Compound 100 and Compound 101.

U251 and U87 cells [2] = test: Annexin V/7-AAD apoptosis FACS analysis; format: cell-based, human; conditions: 24 hours, Annexin V and 7-AAD, FIG. 3C
Experimental: FIG. 3C is a flow cytometric analysis of U251 and U87 co-stained with Annexin V-FITC/7-AAD after treatment with Compound 100, Compound 101, TMZ, and vehicle control DMSO (n=4).
(§2) In order to elucidate the mechanism of this cell death, glioblastoma cells treated for 24 hours with Compound 100, Compound 101, TMZ, or DMSO control were analyzed for early and late apoptosis markers (Annexin V and 7-Aminoactinomycin D) by FACS analyses. […] Additionally, over a period of five days, morphological changes in U251 and U87 cells treated with Compound 100 and Compound 101 were tracked using the Incucyte live cell imaging system.

ERβ = ERβ (Homo sapiens, UniProt Q92731); test: ERβ agonist assay (functional activity at estrogen receptors); format: cell-based
ERβ, sequence (Q92731 whole entry, species assumed): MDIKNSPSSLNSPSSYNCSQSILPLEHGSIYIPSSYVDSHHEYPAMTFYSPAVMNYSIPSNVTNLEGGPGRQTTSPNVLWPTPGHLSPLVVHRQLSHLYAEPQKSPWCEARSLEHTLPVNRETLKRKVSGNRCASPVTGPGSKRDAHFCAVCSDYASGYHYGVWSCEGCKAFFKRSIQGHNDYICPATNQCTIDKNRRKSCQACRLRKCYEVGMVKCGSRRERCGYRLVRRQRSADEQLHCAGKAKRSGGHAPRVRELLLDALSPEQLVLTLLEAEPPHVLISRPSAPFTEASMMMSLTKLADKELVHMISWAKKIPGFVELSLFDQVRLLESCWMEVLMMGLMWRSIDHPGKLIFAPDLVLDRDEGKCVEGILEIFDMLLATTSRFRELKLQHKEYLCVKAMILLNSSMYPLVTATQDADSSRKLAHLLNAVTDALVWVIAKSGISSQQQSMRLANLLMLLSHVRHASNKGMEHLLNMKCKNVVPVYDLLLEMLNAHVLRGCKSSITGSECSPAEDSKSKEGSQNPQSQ
Experimental: FIG. 1 is a set of line graphs showing the results of ERβ and ERα agonist assays for Compounds 100 and 101.
Compounds 100 and 101 were evaluated for their functional activity at estrogen receptors (both ERα and ERβ). 17β-estradiol was used as a control, as it is appreciated to be a potent agonist of both ERα and ERβ.

[3] = system: DU-145 prostate cancer cells (endogenous ERβ); test: Alkaline phosphatase activity in DU-145 prostate cancer cells; format: cell-based, human; conditions: DU-145 cells, 24 hours, 5 μM, FIG. 2
Experimental: FIG. 2 is a bar graph showing alkaline phosphatase activity in human DU-145 prostate cancer cells (17β-estradiol, Compound 100, and Compound 101 were evaluated at 5 μM).
The DU-145 prostate cancer cell line only expresses ERβ and can be used as a model to examine the activation of ERβ in the absence of any potential confounding signal driven by ERα. Alkaline phosphatase (ALP) expression is induced in an ER-dependent manner and has been used to characterize the activity of synthetic ER agonists and antagonists.
In order to examine the ability of Compound 100 and Compound 101 to activate ERβ in the context of a cell line expressing endogenous ERβ, DU-145 cells were treated for 24 hours with either 17β-estradiol, Compound 100, or Compound 101 and ALP activity derived from the cells was examined.

glioblastoma cell lines = test: MTT cell viability assay in glioblastoma cell lines; format: cell-based, human
Experimental: as §1

U251 and U87 cells [4] = test: Incucyte live cell imaging of morphological changes; format: cell-based, human; conditions: over five days, FIG. 3D
Experimental: FIG. 3D depicts phase-contrast images using Incucyte for live cell tracking of U251 and U87 cells in response to treatment with Compound 100, Compound 101, TMZ, and vehicle control DMSO. Live cells were tracked and imaged for 96 hours (data not shown). Scale bar=300 μm. All data in FIG. 3A-3D are representative of four independent experiments and four replicates of each treatment condition were analyzed per experiment.
as §2

established tumors = test: In vivo growth of established tumors; conditions: initial studies
Source text: In comparison to 17β-estradiol, Compound 100 and Compound 101 have a unique profile for selective agonism of ERβ (FIG. 1).

[5] = system: primary glioma tumor cells from patients; test: Growth of primary glioma tumor cells from patients; format: cell-based, human
Source text: The present disclosure also relates to the use of such compounds as biologically active (e.g., therapeutic) components in, for example, pharmaceutical compositions and/or directly as human and/or animal therapeutics and medicines. In certain embodiments, the compounds are ERβ selective agonists and/or may be used to treat or prevent conditions, disorders, or diseases such as cancer (e.g., breast cancer, prostate cancer, ovarian cancer, acute myeloid leukemia, and glioma, among others) or neurodegeneration. Currently there is no widely applicable cure for primary brain tumors.

inhibition of glioma cell growth (IC50), fold lower concentration compared to TMZ (U251 and U87 cells [1]) | type of ERβ agonism (ERβ) | SMILES | induction of apoptosis, fold higher than TMZ or DMSO controls (U251 and U87 cells [2]) | induction of ALP activity [3] | viability and proliferation of glioblastoma lines (U251 and U87 cells [1]; assessed every 24 hours for 5 days, compared to TMZ or DMSO, FIG. 3B) | growth of glioblastoma cell lines (MTT) (glioblastoma cell lines) | morphological changes (adherence, cellular integrity) (U251 and U87 cells [4]) | growth of established tumors in vivo (established tumors) | growth of primary glioma tumor cells from patients [5]
50 fold |  | C[C@@]12CC[C@]3(C)C(=C1C[C@H](O)C2)CCc1cc(O)ccc13 [Compound 101, (9R,13S,16R)-9,13-dimethyl-7,9,11,12,13,15,16,17-octahydro-6H-cyclopenta[a]phenanthrene-3,16-diol] | 7 fold |  |  |  |  |  | 
50 fold | full agonist | C[C@]12CC[C@@]3(C)C(=C1C[C@@H](O)C2)CCc1cc(O)ccc13 [Compound 100, (9S,13R,16S)-9,13-dimethyl-7,9,11,12,13,15,16,17-octahydro-6H-cyclopenta[α]phenanthrene-3,16-diol] | 7 fold | effective at inducing ALP to levels comparable to 17β-estradiol | reduced viability and the resulting proliferation of glioblastoma lines in a dose dependent manner | significantly reduced the growth of glioblastoma cell lines in a dose-dependent manner | Increased loss of adherence and cellular integrity | reduces the growth of established tumors | inhibit growth
 |  | C[C@]12CC[C@@H]3c4ccc(O)cc4CC[C@H]3[C@@H]1CC[C@@H]2O [17β-estradiol, reference compound] |  | effective in inducing ALP activity |  |  |  |  | 
